# Reference: US20180000085A1, “USE OF PICOLINAMIDE COMPOUNDS WITH FUNGICIDAL ACTIVITY” (DOW AGROSCIENCES LLC, priority 2014, published 2018)
# What was measured:
# Puccinia triticina = test: Wheat brown rust (PUCCRT) disease control on wheat seedlings; format: in vivo; settings: low volume application, 125.1 g/H; for PUCCRT 1DP, LV activity at 125.1 g/H (% Control rating): 1 Day Protectant; for PUCCRT 3DC, LV activity at 125.1 g/H (% Control rating): 3 Day Curative
# Zymoseptoria tritici = test: Leaf blotch of wheat (SEPTTR) disease control on wheat seedlings; format: in vivo; set-up: key to SEPTTR 1DP, HV activity at 100 ppm (% control rating) / SEPTTR 3DC, HV activity at 100 ppm (% control rating) / SEPTTR disease control, 1DP / SEPTTR disease control, 3DC / SEPTTR 1DP disease control rating, HV activity / SEPTTR 3DC disease control rating, HV activity / SEPTTR 3DC, LV activity at 125.1 g/H (% Control rating) / SEPTTR 1DP, LV activity at 125.1 g/H (% Control rating) / SEPTTR 1DP disease control rating, LV activity at 125.1 g/H / SEPTTR 3DC disease control rating, LV activity at 125.1 g/H / SEPTTR 3DC disease control rating, HV activity at 100 ppm / SEPTTR 1DP disease control rating, HV activity at 100 ppm / HV activity at 100 ppm SEPTTR 3DC (disease control rating) / HV activity at 100 ppm SEPTTR 1DP (disease control rating) / LV activity at 125.1 g/H SEPTTR 1DP (disease control rating) / LV activity at 125.1 g/H SEPTTR 3DC (disease control rating): A: > 80; B: ≤ 80; C: Not Tested; D: No Activity Observed in the Reported Assay; settings: low volume application, 125.1 g/H; for SEPTTR 1DP, LV activity at 125.1 g/H (% Control rating): 1 Day Protectant; for SEPTTR 3DC, LV activity at 125.1 g/H (% Control rating): 3 Day Curative
SMILES,"PUCCRT 1DP, LV activity at 125.1 g/H (% Control rating) (Puccinia triticina)","PUCCRT 3DC, LV activity at 125.1 g/H (% Control rating) (Puccinia triticina)","SEPTTR 1DP, LV activity at 125.1 g/H (% Control rating) (Zymoseptoria tritici)","SEPTTR 3DC, LV activity at 125.1 g/H (% Control rating) (Zymoseptoria tritici)"
CC[C@H](C)[C@H](NC(=O)c1nccc(OC)c1OCOC(C)=O)C(=O)O[C@@H](C)[C@H](Oc1ccc(C(F)(F)F)cc1)C(C)C [Cmpd 620],B (≤ 80),B (≤ 80),D,B (≤ 80)
COc1ccnc(C(=O)N[C@@H](C)C(=O)O[C@@H](C)[C@H](Oc2ccc3ccccc3c2)C(C)C)c1OCOC(C)=O [Cmpd 622],A (> 80),A (> 80),D,B (≤ 80)
COc1ccnc(C(=O)N[C@@H](C)C(=O)O[C@@H](C)[C@H](OC(=O)C(C)C)C(C)C)c1OCOC(C)=O [Cmpd 623],A (> 80),A (> 80),D,B (≤ 80)
COc1ccnc(C(=O)N[C@H](C(=O)O[C@@H](C)[C@H](Oc2cccc3ccccc23)C(C)C)C(C)C)c1OCOC(C)=O [Cmpd 624],A (> 80),A (> 80),B (≤ 80),D
COc1ccnc(C(=O)N[C@@H](C)C(=O)O[C@@H](C)[C@H](Oc2ccc(-c3ccccc3)cc2)C(C)C)c1OC(C)=O [Cmpd 625],A (> 80),B (≤ 80),D,D
COc1ccnc(C(=O)N[C@@H](C)C(=O)O[C@@H](C)[C@H](Oc2cc(F)cc(Cl)c2)C(C)C)c1OC(C)=O [Cmpd 628],A (> 80),A (> 80),B (≤ 80),A (> 80)
COc1ccnc(C(=O)N[C@@H](C)C(=O)O[C@@H](C)[C@H](Oc2ccc(C(F)(F)F)cc2)C(C)C)c1OC(C)=O [Cmpd 629],A (> 80),A (> 80),B (≤ 80),B (≤ 80)
CC[C@H](C)[C@H](NC(=O)c1nccc(OC)c1OC(C)=O)C(=O)O[C@@H](C)[C@H](Oc1cc(F)ccc1F)C(C)C [Cmpd 630],A (> 80),A (> 80),D,D
COc1ccnc(C(=O)N[C@@H](C)C(=O)O[C@@H](C)[C@H](Oc2cccc3ccccc23)C(C)C)c1OC(C)=O [Cmpd 631],A (> 80),A (> 80),B (≤ 80),D
COc1ccnc(C(=O)N[C@@H](C)C(=O)O[C@@H](C)[C@H](Oc2ccc3ccccc3c2)C(C)C)c1OC(C)=O [Cmpd 632],A (> 80),A (> 80),D,D
COc1ccnc(C(=O)N[C@H](C(=O)O[C@@H](C)[C@H](Oc2ccc3ccccc3c2)C(C)C)C(C)C)c1OCOC(C)=O [Cmpd 633],A (> 80),A (> 80),B (≤ 80),A (> 80)
COc1ccnc(C(=O)N[C@@H](C)C(=O)O[C@@H](C)[C@H](Oc2ccc(Cl)cc2Cl)c2ccccc2)c1OCOC(C)=O [Cmpd 634],A (> 80),B (≤ 80),A (> 80),A (> 80)
